What was measured:
mouth and throat = assay: Sensory activity of ODT-C on volunteers (double-blind, modified ASHRAE scale); format: in vivo, human; details: for ODT-C test results (sensation and taste in words) / duration of cooling effect: 1.2 to 1.5 mg per ODT; for ODT-C test results (sensation and taste in words): 4 volunteers; for quality of heat abstraction sensation (peak intensity) / duration of cooling effect: ODT-C; for ASHRAE equivalent: peak heat abstraction sensation, modified ASHRAE scale neutral [0] to icy cold [-4]
Description: ODT-C. More experiments were conducted to find a smaller tablet, in the range of 40 to 60 mg, with a disintegration of <10 sec. These paraemters might achieve a better pharmacological effect. ODT-B was 100 mg in size and disintegrated in <20 sec. […] For example, to 1.5 g of DAPA-2-5 is added 1.5 g of absolute ethanol, followed by 2.0 g of Neusilin US2. The mixture is shaken or mixed in a Speedmixer at 500 rpm for 1 min. The sample is placed under a heat source and about 2 hr later, the sample size is re-weighed with the expectation that the ethanol has been evaporated and the sample now weights 3.5 g. This powder is free-flowing. • b. a sample of maltitol powder is prepared (Maltisorb® P200 from Roquette). • c. a sample of Prosolv® EasyTab is prepared (JRS Pharma, Rosenburg, Germany). • d. a blend of a. [2.80 g], b. [15.73 g] and c. [31.46 g] is prepared to make 1000 ODT tablets, each weighing 50 mg and containing 1.2 mg of DAPA-2-5. • e. the blend is first shaken by hand, then placed for 2 min in a SpeedMixer at 500 rpm. The blend is poured into the funnel of a New Single Punch Tablet Press Pill Making Machine Maker TDP-1-5 [available from Amazon.com] and the extruded tablets are collected.
ODT-C, described in Study 2, were tested for sensory properties on 4 volunteers, with at least 3 trials per compound and at 1.2 to 1.5 mg per ODT. The ODT was placed on the mid-line posterior dorsal surface of the tongue and sensory effects recorded for 30 min on a standardized form […]. The ODT were coded and administered on a double-blind basis. A modified ASHRAE scale of neutral, slightly cool [-1], cool [-2], cold [-3], and icy cold [-4] was used to rank the peak heat abstraction sensations in the mouth and throat. Other perceived effects, e.g. taste and duration, were also noted.

oropharynx = assay: Chili-pepper sauce irritation test; format: in vivo, human; design: key: If there was no suppression of the irritant/tickling sensations of the sauce, the value was “0”; if there was some suppression, the value was “+”; if there was complete suppression, then the value was “++.”; details: ODT, sauce applied 30 min later; 6 to 8 trials per compound
Description: The “pain” component of inflammation includes irritation, itch, and discomfort and suppression of these endpoints is termed “anti-nociceptive”. To determine if a compound has anti-nociceptive activity, the Inventor has devised a modified capsaicin challenge method to evoke discomfort in the oropharyngx: the chili-pepper sauce irritation test. Chili-pepper sauce placed onto the posterior dorsal surface of the tongue evokes a tickling/irritant sensations in the oropharynx. The sensations associated with the chili pepper sauce are located in the back of the mouth and are clearly recognized and associated with irritation and a desire to clear the throat. In the chili-pepper sauce irritation test, the test compound is delivered using an ODT, as in Study 3, and 30 min later 0.2 to 0.25 mL of the sauce was applied onto the posterior dorsal surface of the tongue (with a syringe or a plastic stick). The chili pepper sauce used here is called Yank Sing® Chili Pepper Sauce (YS Gourmet Productions, Inc., PO Box 26189, San Francisco, Calif. 94126) and is a well-known condiment for use with dim sum (Chinese tea lunch). If there was no suppression of the irritant/tickling sensations of the sauce, the value was “0”; if there was some suppression, the value was “+”; and if there was complete suppression, then the value was “++.” For compounds that gave a ++ score, the irritative signals of the chili-pepper sauce are completely absent, yet the salty taste from the soy sauce of the condiment can still be readily tasted. A “++” result indicated suppression of the irritant effects of chili-pepper sauce. Numerical results are from 6 to 8 trials per compound.

throat = assay: Cold water test after ODT-A (cold discomfort); format: in vivo, human; design: key: If the subject felt “normal coolness” in the throat, the value was “0”; if the water felt “excessively cold” on the throat, it was rated as “+”; if there was “aching cold/discomfort” on the throat, the ranking was “++”; details: ODT-A on the tongue, ice water drunk 10 min later
Description: After application of ODT-A there were sensations associated with heat abstraction of various intensity and duration. Of particular note was the sensation of “icy or painful” cold was felt with some compounds, but the effect was variable. To isolate this sensation more precisely and reduce variability, ODT-A was placed on the tongue and 10 min later the subject was instructed to drink a mouthful of water previously equilibrated with ice chips. If the subject felt “normal coolness” in the throat, the value was “0”; if the water felt “excessively cold” on the throat, it was rated as “+”; and if there was “aching cold/discomfort” on the throat, the ranking was “++”. The term “cold discomfort” was applied compounds that produced “++”, and this phenomenon could now be reliably defined and identified with the cold water test.

[1] = biological target: T1, cloned hTRPM8 channel (encoded by the human TRPM8 gene, expressed in CHO cells) (Homo sapiens, UniProt Q7Z2W7); assay: TRPM8 agonist FLIPR Fluo-8 calcium assay; format: cell-based; details: for TRPM8 Relative Potency: DAPA-1-7 = 1
T1 construct: host or cells: CHO cells, stably transfected
Description: The in vitro effects of test compounds were evaluated on cloned hTRPM8 channel (encoded by the human TRPM8 gene, expressed in CHO cells) using a Fluo-8 calcium kit and a Fluorescence Imaging Plate Reader (FLIPR^TETRA™) instrument.
Test compounds and positive control solutions were prepared by diluting stock solutions in a HEPES-buffered physiological saline (HBPS) solution. The test compound and control formulations were loaded in polypropylene or glass-lined 384-well plates, and placed into the FLIPR instrument (Molecular Devices Corporation, Union City, Calif., USA). The test compounds were evaluated at 4 or 8 concentrations with n=4 replicates per determination. […] The test cells were Chinese Hamster Ovary (CHO) cells stably transfected with human TRPM8 cDNAs.
For the FLIPR^TETRA™ assay, cells were plated in 384-well black wall, flat clear-bottom microtiter plates (Type: BD Biocoat Poly-D-Lysine Multiwell Cell Culture Plate) at approximately 30,000 cells per well. Cells were incubated at 37° C. overnight to reach a near confluent monolayer appropriate for use in a fluorescence assay. The test procedure was to remove the growth media and to add 40 μL of HBPS containing Fluo-8 for 30 min at 37° C. 10 μL of test compound, vehicle, or control solutions in HBPS were added to each well and read for 4 min.
Concentration-response data were analyzed via the FLIPR Control software that is supplied with the FLIPR System (MDS-AT) and fitted to a Hill equation of the following form: […]
where: “Base” is the response at low concentrations of test compound; “Max” is the maximum response at high concentrations; “xhalf” is the EC50, the concentration of test compound producing half-maximal activation; and “rate” is the Hill coefficient. Nonlinear least squares fits were made assuming a simple one-to-one binding model.

T1 sequence (Q7Z2W7 whole entry): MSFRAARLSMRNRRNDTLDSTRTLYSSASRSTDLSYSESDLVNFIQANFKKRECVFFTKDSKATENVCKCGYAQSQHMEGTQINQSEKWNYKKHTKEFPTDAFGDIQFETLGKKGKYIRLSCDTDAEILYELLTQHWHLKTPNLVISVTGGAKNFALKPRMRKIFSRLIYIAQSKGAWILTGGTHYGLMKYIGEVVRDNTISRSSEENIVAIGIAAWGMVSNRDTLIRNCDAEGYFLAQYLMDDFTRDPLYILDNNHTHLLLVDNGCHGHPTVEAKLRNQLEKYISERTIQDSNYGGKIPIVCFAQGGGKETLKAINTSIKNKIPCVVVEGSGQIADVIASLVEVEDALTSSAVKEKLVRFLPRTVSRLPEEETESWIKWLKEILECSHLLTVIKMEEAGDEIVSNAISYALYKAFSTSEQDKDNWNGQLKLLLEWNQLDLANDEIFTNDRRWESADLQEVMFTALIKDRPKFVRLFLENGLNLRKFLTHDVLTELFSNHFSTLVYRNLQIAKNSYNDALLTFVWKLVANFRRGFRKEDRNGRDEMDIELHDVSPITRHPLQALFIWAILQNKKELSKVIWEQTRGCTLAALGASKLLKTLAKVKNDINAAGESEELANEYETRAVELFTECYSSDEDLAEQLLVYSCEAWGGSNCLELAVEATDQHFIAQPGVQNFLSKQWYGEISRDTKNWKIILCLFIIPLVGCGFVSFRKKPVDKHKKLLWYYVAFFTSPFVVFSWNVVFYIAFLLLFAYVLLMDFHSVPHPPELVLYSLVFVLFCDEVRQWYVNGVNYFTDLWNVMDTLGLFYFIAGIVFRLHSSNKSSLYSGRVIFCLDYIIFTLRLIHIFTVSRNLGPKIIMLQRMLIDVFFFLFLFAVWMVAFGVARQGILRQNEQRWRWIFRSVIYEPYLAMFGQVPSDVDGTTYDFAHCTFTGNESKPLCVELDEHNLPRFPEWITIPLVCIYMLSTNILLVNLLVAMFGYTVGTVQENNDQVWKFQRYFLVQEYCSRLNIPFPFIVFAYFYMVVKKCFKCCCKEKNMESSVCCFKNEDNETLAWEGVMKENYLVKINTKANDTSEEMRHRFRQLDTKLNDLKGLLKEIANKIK

| SMILES | Cold Discomfort (throat) | Relative Potency to L-menthol [1] | TRPM8 Relative Potency [1] | ODT-C test results (sensation and taste in words) (mouth and throat) | quality of heat abstraction sensation (peak intensity) (mouth and throat) | duration of cooling effect (mouth and throat) | ASHRAE equivalent (mouth and throat) | Chili test (oropharynx) | rank in TRPM8 potency among the 21 compounds tested [1] |
| --- | --- | --- | --- | --- | --- | --- | --- | --- | --- |
| CCCCCCP(=O)(C(C)C)C(C)C [DAPA-1-6, 1-Di(isopropyl)-phosphinoyl-hexane] | ++ | 1.6 |  | intense sensation of icy cold, but has unpleasant | cold and icy cold which was painful to the back of the throat | lasting >10 min | −3.5 | ++ |  |
| CCCCCP(=O)(C(C)CC)C(C)CC (stereo not shown) [DAPA-2-5, 1-Di(sec-butyl)-phosphinoyl-pentane] | 0 | 2.2 | 0.41 | pleasant dynamic cool | refreshing coolness and cold | 12 to 15 min | −2.7 | ++ | 12 |
| CCCCCCCP(=O)(C(C)CC)C(C)CC (stereo not shown) [DAPA-2-7, 1-Di(sec-butyl) phosphinoyl-heptane] | ++ | 3.4 | 0.64 | intense sensation of icy cold, but has unpleasant | cold and icy cold which was painful to the back of the throat | taste on the tongue, long-lasting >15 min | −3.5 | ++ |  |

More lines, main results first:

| Cold Discomfort (throat) | Relative Potency to L-menthol [1] | TRPM8 Relative Potency [1] | SMILES | ODT-C test results (sensation and taste in words) (mouth and throat) | quality of heat abstraction sensation (peak intensity) (mouth and throat) | duration of cooling effect (mouth and throat) | ASHRAE equivalent (mouth and throat) | Chili test (oropharynx) | rank in TRPM8 potency among the 21 compounds tested [1] |
| --- | --- | --- | --- | --- | --- | --- | --- | --- | --- |
| + | 5.4 | 1 | CCCCCCCP(=O)(C(C)C)C(C)C [DAPA-1-7, 1-Di(isopropyl)-phosphinoyl-heptane] | intense sensation of icy cold, but has unpleasant | cold and icy cold which was painful to the back of the throat | taste on the tongue: test dose of 1 to 2 mg, >15 min. | −3.5 | ++ |  |
| ++ | 4.7 | 0.87 | CCCCCCP(=O)(C(C)CC)C(C)CC (stereo not shown) [DAPA-2-6, 1-Di(sec-butyl) phosphinoyl-hexane] | intense sensation of icy cold, but has unpleasant | cold and icy cold which was painful to the back of the throat | taste on the tongue, long-lasting >15 min | −3.2 | ++ |  |
| + | 2.9 | 0.71 | CCCCCCCCP(=O)(C(C)CC)C(C)CC (stereo not shown) [DAPA-2-8, 1-Di(sec-butyl) phosphinoyl-octane] | strong unpleasant taste |  |  | −2.7 | + |  |

From patent US20150111852A1, “1-Di(sec-butyl)-phosphinoyl-pentane (dapa-2-5) as a topical agent” (priority 2013, published 2015)
